The target of one assay is ADORA2A (Homo sapiens, UniProt P29274). The assay can be described thus: SAFETYScan GPCR Calcium Flux, Agonist. The assay is classed as cell-based. From the text:
(§1) Supplement jm1c02175_si_002.xlsx, sheet "SAFETYScan" | column: RC50 (uM); Max Response

Another assay deals with T1, ADRA1A (Homo sapiens, UniProt P35348).
T1 sequence (P35348 1-466): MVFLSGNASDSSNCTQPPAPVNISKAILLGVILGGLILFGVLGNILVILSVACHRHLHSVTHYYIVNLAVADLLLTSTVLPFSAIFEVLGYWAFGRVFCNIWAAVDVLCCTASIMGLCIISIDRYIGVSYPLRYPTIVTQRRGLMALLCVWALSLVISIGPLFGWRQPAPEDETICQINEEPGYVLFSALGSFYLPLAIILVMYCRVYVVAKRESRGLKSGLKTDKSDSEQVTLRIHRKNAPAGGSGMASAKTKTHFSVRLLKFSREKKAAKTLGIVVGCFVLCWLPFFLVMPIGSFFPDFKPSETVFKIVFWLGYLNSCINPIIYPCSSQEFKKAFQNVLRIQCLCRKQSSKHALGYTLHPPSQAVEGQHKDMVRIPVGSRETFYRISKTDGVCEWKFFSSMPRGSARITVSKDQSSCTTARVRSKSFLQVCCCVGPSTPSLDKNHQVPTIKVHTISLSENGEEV
Briefly: SAFETYScan GPCR Calcium Flux, Agonist. The assay is classed as cell-based.
Excerpt: as §1

A further assay deals with AVPR1A (Homo sapiens, UniProt P37288). Briefly: SAFETYScan GPCR Calcium Flux, Agonist. The assay is classed as cell-based.
AVPR1A, sequence (P37288 whole entry): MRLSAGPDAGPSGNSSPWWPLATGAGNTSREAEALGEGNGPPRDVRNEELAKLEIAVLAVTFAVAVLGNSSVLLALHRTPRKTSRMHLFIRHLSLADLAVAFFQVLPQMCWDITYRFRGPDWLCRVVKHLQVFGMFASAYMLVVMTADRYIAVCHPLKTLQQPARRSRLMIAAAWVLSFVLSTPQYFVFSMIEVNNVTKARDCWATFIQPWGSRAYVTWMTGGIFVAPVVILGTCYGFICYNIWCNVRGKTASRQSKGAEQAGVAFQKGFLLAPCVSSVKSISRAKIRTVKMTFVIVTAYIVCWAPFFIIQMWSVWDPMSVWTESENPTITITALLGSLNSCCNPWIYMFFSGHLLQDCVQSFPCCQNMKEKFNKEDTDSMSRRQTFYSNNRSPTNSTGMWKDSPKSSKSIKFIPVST
Excerpt: as §1

A further assay concerns the target T2, CCKAR (Homo sapiens, UniProt P32238).
T2 sequence (P32238 1-428): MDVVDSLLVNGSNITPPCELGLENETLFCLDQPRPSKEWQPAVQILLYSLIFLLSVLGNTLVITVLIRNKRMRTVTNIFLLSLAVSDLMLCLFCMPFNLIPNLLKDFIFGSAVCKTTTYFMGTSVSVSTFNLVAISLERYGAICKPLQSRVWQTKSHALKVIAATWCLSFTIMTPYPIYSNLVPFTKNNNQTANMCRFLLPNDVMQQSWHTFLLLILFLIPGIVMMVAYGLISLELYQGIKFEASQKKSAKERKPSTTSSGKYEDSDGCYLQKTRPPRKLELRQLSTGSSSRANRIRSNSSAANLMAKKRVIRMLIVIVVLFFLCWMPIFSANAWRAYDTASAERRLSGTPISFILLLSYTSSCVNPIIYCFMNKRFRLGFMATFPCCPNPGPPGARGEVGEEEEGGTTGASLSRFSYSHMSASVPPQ
Briefly: SAFETYScan GPCR Calcium Flux, Agonist. The assay is classed as cell-based.
Excerpt: as §1

The next assay has as its target T3, CHRM1 (Homo sapiens, UniProt P11229).
T3 sequence (P11229 1-460): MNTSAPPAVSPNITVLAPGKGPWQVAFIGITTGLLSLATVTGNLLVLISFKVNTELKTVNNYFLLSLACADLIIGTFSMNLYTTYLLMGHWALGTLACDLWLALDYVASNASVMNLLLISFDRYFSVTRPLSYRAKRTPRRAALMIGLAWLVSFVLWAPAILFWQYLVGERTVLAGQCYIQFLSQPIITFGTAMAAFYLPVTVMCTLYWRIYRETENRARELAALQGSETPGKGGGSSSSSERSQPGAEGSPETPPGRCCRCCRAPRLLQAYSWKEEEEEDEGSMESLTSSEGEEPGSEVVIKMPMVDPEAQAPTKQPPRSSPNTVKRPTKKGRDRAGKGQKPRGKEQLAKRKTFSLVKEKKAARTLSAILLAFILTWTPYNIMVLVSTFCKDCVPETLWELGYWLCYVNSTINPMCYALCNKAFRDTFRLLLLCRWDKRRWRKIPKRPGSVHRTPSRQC
The assay can be described thus: SAFETYScan GPCR Calcium Flux, Agonist. The assay is classed as cell-based.
Excerpt: as §1

For the next assay, the target named is CHRM3 (Homo sapiens, UniProt P20309). Briefly: SAFETYScan GPCR Calcium Flux, Agonist. The assay is classed as cell-based.
CHRM3, sequence (P20309 whole entry): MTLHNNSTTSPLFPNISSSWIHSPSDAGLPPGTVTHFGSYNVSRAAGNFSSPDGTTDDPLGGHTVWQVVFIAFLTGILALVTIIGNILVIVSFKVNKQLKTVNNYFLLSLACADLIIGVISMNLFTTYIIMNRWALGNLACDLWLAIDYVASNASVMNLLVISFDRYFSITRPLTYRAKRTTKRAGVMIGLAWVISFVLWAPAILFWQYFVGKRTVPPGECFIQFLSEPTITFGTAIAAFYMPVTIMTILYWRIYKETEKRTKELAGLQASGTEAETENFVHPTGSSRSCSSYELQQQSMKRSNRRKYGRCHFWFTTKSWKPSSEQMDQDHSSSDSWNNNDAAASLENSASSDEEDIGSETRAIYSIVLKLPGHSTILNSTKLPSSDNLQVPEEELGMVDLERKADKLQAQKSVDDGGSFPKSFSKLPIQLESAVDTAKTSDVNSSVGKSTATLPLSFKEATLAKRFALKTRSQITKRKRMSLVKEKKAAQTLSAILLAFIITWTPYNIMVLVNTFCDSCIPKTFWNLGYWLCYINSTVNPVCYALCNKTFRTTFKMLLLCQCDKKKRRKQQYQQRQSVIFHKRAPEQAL
Excerpt: as §1

The target of another assay is HRH1 (Homo sapiens, UniProt P35367). Briefly: SAFETYScan GPCR Calcium Flux, Agonist. The assay is classed as cell-based.
HRH1, sequence (P35367 whole entry): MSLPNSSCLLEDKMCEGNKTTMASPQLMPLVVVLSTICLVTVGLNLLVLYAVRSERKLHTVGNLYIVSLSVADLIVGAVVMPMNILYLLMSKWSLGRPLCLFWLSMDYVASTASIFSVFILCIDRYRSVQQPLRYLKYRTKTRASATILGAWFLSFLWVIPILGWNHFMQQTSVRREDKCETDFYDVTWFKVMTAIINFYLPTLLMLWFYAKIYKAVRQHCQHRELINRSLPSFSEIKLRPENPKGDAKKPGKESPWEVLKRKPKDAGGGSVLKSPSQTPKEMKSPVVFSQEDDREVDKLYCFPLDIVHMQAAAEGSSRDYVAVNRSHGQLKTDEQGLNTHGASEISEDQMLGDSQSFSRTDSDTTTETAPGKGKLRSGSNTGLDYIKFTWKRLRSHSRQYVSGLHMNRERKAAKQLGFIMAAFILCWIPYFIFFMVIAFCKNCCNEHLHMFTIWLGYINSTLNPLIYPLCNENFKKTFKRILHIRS
Excerpt: as §1

In the next assay the target is HTR2A (Homo sapiens, UniProt P28223). The assay can be described thus: SAFETYScan GPCR Calcium Flux, Agonist. The assay is classed as cell-based.
HTR2A, sequence (P28223 whole entry): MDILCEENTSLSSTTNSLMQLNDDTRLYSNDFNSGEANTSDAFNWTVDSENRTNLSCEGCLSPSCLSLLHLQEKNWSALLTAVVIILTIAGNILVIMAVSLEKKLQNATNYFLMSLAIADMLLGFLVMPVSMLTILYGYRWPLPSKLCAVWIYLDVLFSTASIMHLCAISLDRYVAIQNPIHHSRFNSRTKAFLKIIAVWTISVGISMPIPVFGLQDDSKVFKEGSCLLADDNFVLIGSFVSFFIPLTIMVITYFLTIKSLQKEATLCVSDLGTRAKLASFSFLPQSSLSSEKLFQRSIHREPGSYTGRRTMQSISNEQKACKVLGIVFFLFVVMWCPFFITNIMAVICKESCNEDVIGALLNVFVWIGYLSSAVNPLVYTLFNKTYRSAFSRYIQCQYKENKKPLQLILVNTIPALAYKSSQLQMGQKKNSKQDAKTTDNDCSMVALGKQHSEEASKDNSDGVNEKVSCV
Excerpt: as §1

For another assay, the target named is T4, HTR2B (Homo sapiens, UniProt P41595).
T4 construct: expressed in transfected cells
T4 sequence (P41595 whole entry): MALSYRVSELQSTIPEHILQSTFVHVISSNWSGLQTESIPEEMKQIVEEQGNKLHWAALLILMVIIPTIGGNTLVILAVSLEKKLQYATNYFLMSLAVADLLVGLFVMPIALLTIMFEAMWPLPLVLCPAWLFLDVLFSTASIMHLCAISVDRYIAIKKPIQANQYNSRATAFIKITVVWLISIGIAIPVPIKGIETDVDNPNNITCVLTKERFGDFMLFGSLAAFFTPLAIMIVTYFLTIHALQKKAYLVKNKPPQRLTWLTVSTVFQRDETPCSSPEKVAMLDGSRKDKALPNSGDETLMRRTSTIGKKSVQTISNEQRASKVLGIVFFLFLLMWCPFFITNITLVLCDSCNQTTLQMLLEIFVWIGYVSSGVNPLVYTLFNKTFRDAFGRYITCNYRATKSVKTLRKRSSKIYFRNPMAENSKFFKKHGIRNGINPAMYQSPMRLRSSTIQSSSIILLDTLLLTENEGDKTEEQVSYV
Briefly: SAFETYScan GPCR Calcium Flux, Agonist. The assay is classed as cell-based.
Excerpt: as §1

The next assay addresses T5, AR (Homo sapiens, UniProt P10275).
T5 sequence (P10275 1-920): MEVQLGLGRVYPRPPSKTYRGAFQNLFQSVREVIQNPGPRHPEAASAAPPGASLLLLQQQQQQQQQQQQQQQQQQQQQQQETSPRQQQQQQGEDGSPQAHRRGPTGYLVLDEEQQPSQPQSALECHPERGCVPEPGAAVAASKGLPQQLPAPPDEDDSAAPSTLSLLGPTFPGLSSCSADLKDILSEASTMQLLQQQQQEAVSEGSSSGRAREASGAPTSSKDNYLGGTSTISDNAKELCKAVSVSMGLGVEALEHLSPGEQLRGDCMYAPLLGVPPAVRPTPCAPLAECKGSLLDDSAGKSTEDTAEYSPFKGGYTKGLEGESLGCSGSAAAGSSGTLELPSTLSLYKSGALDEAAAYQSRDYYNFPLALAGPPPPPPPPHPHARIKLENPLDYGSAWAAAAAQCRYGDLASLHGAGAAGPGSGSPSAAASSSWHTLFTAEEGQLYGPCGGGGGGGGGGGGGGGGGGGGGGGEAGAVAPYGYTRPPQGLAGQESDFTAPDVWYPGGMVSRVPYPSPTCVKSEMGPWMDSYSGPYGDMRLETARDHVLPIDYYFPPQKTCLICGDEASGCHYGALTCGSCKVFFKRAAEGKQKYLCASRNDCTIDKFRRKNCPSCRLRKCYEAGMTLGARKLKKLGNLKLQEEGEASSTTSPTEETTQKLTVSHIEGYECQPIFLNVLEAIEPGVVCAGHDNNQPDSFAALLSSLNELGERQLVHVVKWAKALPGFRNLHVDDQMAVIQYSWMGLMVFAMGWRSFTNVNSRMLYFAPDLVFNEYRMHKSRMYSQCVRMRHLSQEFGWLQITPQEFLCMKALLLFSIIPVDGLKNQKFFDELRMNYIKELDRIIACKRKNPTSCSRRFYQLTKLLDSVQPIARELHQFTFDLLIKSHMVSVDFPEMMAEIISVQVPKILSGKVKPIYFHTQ
The assay can be described thus: SAFETYScan NHR Nuclear Translocation, Antagonist. The assay is classed as cell-based.
Excerpt: as §1

For the next assay, the target named is COX1 (Homo sapiens, UniProt P23219). The assay can be described thus: SAFETYScan Non-Kinase Enzymes Enzymatic, Inhibitor. The assay is classed as biochemical.
COX1, sequence (P23219 24-599): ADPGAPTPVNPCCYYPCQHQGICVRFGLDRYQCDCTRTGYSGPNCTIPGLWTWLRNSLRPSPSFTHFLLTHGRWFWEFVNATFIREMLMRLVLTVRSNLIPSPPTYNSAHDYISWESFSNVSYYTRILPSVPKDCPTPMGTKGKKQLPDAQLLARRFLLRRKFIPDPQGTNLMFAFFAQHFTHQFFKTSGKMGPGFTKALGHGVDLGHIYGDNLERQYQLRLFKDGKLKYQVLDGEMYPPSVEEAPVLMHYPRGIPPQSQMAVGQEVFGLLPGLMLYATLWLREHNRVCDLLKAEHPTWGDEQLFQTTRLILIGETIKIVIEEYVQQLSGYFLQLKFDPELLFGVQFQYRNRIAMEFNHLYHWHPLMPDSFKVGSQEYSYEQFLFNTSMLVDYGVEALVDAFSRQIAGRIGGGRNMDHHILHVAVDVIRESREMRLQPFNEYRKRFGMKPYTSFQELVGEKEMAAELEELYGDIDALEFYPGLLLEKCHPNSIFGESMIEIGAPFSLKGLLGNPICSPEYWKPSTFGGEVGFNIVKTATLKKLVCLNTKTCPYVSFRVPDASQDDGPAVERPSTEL
Excerpt: as §1

ADORA2A, sequence (P29274 whole entry): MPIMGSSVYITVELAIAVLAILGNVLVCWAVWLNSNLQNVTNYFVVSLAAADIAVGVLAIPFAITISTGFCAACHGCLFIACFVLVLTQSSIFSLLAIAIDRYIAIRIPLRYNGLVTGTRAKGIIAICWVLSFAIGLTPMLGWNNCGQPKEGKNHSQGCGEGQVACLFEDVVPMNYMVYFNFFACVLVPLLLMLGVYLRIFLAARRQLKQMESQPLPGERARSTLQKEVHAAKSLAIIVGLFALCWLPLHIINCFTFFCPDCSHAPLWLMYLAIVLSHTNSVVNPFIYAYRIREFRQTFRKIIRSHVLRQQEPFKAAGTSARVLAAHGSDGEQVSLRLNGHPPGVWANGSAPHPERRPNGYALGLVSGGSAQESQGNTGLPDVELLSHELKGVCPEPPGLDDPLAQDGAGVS

Regarding `C[C@H]1C[C@@H](O)CN(c2ncc(Cl)c(Nc3ccc4c(c3)c3c(c(=O)n4C)OCC(F)(F)[C@H](C4CC4)N3)n2)C1` [12a CCT373566, (S)-10-((5-Chloro-2-((3R,5S)-3-hydroxy-5-methylpiperidin-1-yl)pyrimidin-4-yl)amino)-2-cyclopropyl-3,3-difluoro-7-methyl-1,2,3,4-tetrahydro-[1,4]oxazepino[2,3-c]quinolin-6(7H)-one], the Emax on ADORA2A (read-out: Max Response) stood at 0%; on ADRA1A (read-out: Max Response) it was 5.05%; at AVPR1A (read-out: Max Response) it was 4.09%; at CCKAR (read-out: Max Response), 2.17%; on CHRM1 (read-out: Max Response), 3.12%; on CHRM3 (read-out: Max Response) it was 3.17%. Also, the Emax is 1.78% at HRH1 (read-out: Max Response); 0% on HTR2A (read-out: Max Response); 1.98% at HTR2B (read-out: Max Response); 0% at AR (read-out: Max Response); 33% at COX1 (read-out: Max Response). In addition, the EC50 on ADORA2A (read-out: RC50 (EC50)), on ADRA1A (read-out: RC50 (EC50)), on AVPR1A (read-out: RC50 (EC50)), on CCKAR (read-out: RC50 (EC50)), at CHRM1 (read-out: RC50 (EC50)) and at CHRM3 (read-out: RC50 (EC50)) was over 10 µM in each case. Further, the 50% effective concentration (EC50) on HRH1 (read-out: RC50 (EC50)), at HTR2A (read-out: RC50 (EC50)) and at HTR2B (read-out: RC50 (EC50)) was over 10 µM throughout. Also, the IC50 at AR (read-out: RC50 (IC50)) and on COX1 (read-out: RC50 (IC50)) was over 10 µM in each case.

These data come from paper PMC9234961 (Journal of Medicinal Chemistry, 2022).
